According to PubChem BioAssay AID248 (DTP/NCI, 2004):
Where “and” joins values, the source holds several entries; their conditions need not be identical. Equal values may be shown once. Toxic doses and inconclusive results are not listed.

Test system: L1210 leukemia ip in BDF1 mice, survival T/C
Assay: NCI In Vivo Anticancer Drug Screen. Data for tumor model L1210 Leukemia (intraperitoneal) in B6D2F1 (BDF1) mice
Conditions: endpoint: mean survival time, higher = longer survival
How it was run: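 Tumor cells were implanted, animals were treated, and survival was followed. The result divides the treated measurement by the vehicle-control measurement.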

[1] = dose: 100.0 mg/kg/injection, schedule: Q01DX001 (ip), vehicle: Klucel (hydroxypropylcellulose) (HPC)
[2] = dose: 200.0 mg/kg/injection, schedule: Q01DX001 (ip), vehicle: Klucel (hydroxypropylcellulose) (HPC)
[3] = dose: 400.0 mg/kg/injection, schedule: Q01DX001 (ip), vehicle: Klucel (hydroxypropylcellulose) (HPC)
[4] = dose: 100.0 mg/kg/injection, schedule: Q04DX002 (ip), vehicle: Klucel (hydroxypropylcellulose) (HPC)
[5] = dose: 200.0 mg/kg/injection, schedule: Q04DX002 (ip), vehicle: Klucel (hydroxypropylcellulose) (HPC)
[6] = dose: 400.0 mg/kg/injection, schedule: Q04DX002 (ip), vehicle: Klucel (hydroxypropylcellulose) (HPC)
[7] = dose: 100.0 mg/kg/injection, schedule: Q04DX003 (ip), vehicle: Klucel (hydroxypropylcellulose) (HPC)
[8] = dose: 200.0 mg/kg/injection, schedule: Q04DX003 (ip), vehicle: Klucel (hydroxypropylcellulose) (HPC)
[9] = dose: 400.0 mg/kg/injection, schedule: Q04DX003 (ip), vehicle: Klucel (hydroxypropylcellulose) (HPC)
[10] = dose: 75.0 mg/kg/injection, schedule: Q01DX001 (ip), vehicle: other
[11] = dose: 150.0 mg/kg/injection, schedule: Q01DX001 (ip), vehicle: other
[12] = dose: 50.0 mg/kg/injection, schedule: Q04DX003 (ip), vehicle: Klucel (hydroxypropylcellulose) (HPC)
[13] = dose: 100.0 mg/kg/injection, schedule: Q01DX001 (ip), vehicle: other
[14] = dose: 200.0 mg/kg/injection, schedule: Q01DX001 (ip), vehicle: other
[15] = dose: 400.0 mg/kg/injection, schedule: Q01DX001 (ip), vehicle: other
[16] = dose: 100.0 mg/kg/injection, schedule: Q01DX009 (ip), vehicle: saline with Tween-80
[17] = dose: 200.0 mg/kg/injection, schedule: Q01DX009 (ip), vehicle: saline with Tween-80
[18] = dose: 75.0 mg/kg/injection, schedule: Q04DX003 (ip), vehicle: other
[19] = dose: 150.0 mg/kg/injection, schedule: Q04DX003 (ip), vehicle: other
[20] = dose: 100.0 mg/kg/injection, schedule: Q01DX001 (ip), vehicle: carboxymethylcellulose (CMC)
[21] = dose: 100.0 mg/kg/injection, schedule: Q04DX003 (ip), vehicle: saline
[22] = dose: 200.0 mg/kg/injection, schedule: Q04DX003 (ip), vehicle: saline
[23] = dose: 400.0 mg/kg/injection, schedule: Q04DX003 (ip), vehicle: saline

Cc1ncc2c(=O)n(-c3ccc(C(=O)O)cc3)[nH]c2n1
T/C (dose: 75.0 mg/kg/injection, schedule: Q04DX003 (ip), vehicle: Klucel (hydroxypropylcellulose) (HPC)): 103 % of control
T/C [1]: 94 % of control
T/C (dose: 150.0 mg/kg/injection, schedule: Q04DX003 (ip), vehicle: Klucel (hydroxypropylcellulose) (HPC)): 106 % of control
T/C [2]: 97 % of control
T/C (dose: 300.0 mg/kg/injection, schedule: Q04DX003 (ip), vehicle: Klucel (hydroxypropylcellulose) (HPC)): 90 % of control
T/C [3]: 110 % of control

C/C(=N\N=C(/C)c1c(C)c([N+](=O)[O-])c(C(C)(C)C)c([N+](=O)[O-])c1C)c1c(C)c([N+](=O)[O-])c(C(C)(C)C)c([N+](=O)[O-])c1C
T/C [4]: 97 % of control
T/C [5]: 94 % of control
T/C [6]: 97 % of control

Cc1nnn(N/N=C(\C(=O)Oc2ccccc2)c2ccccc2)c1C
T/C [7]: 100 % of control
T/C [8]: 103 % of control
T/C [9]: 96 % of control

Nn1c(-c2ccccc2)c[n+]2ccccc12
T/C [10]: 101 % of control
T/C [11]: 97 % of control
T/C (dose: 300.0 mg/kg/injection, schedule: Q01DX001 (ip), vehicle: other): 92 % of control

COc1nc(N)nc2c1ncn2C1OC(CO)C(O)C1O (stereo not drawn)
T/C (dose: 75.0 mg/kg/injection, schedule: Q01DX001 (ip), vehicle: saline): 102 % of control
T/C (dose: 150.0 mg/kg/injection, schedule: Q01DX001 (ip), vehicle: saline): 93 % of control

CC1=CC(=O)C2COc3c2c1cc1c(C)cc(=O)n(C)c31 (stereo not drawn)
T/C [12]: 97 % of control
T/C [1]: 95 % of control
T/C [7]: 113 % of control
T/C [2]: 95 % of control
T/C [8]: 97 % of control
T/C [3]: 97 % of control

O=C1C=CC(=Nc2ccc(O)c3ncccc23)c2cccnc21
T/C [13]: 104 % of control and 114 % of control
T/C [14]: 106 % of control and 108 % of control
T/C [15]: 102 % of control

Cc1ccc(N(N)c2ccc(C)cc2)cc1
T/C (dose: 100.0 mg/kg/injection, schedule: Q01DX009 (ip), vehicle: Klucel (hydroxypropylcellulose) (HPC)): 98 % of control
T/C [7]: 100 % of control
T/C (dose: 200.0 mg/kg/injection, schedule: Q01DX009 (ip), vehicle: Klucel (hydroxypropylcellulose) (HPC)): 98 % of control
T/C [8]: 97 % of control
T/C [9]: 100 % of control

CC(C)(C)NC(=O)NCc1ccc(Cl)cc1
T/C [4]: 100 % of control
T/C [5]: 88 % of control
T/C [6]: 111 % of control

O=c1[nH]c2cccnc2c(=O)n1O
T/C (dose: 175.0 mg/kg/injection, schedule: Q04DX003 (ip), vehicle: carboxymethylcellulose (CMC)): 108 % of control
T/C (dose: 350.0 mg/kg/injection, schedule: Q04DX003 (ip), vehicle: carboxymethylcellulose (CMC)): 92 % of control

C=CCC(CO)(c1ccccc1)c1ccccc1
T/C (dose: 50.0 mg/kg/injection, schedule: Q01DX009 (ip), vehicle: saline with Tween-80): 97 % of control
T/C [16]: 87 % of control
T/C [17]: 97 % of control

CC1=C(C)CC2(C)N(C)CC2(C)C1 (stereo not drawn)
T/C (dose: 37.0 mg/kg/injection, schedule: Q04DX003 (ip), vehicle: other): 104 % of control
T/C (dose: 37.5 mg/kg/injection, schedule: Q01DX009 (ip), vehicle: other): 110 % of control
T/C [10]: 107 % of control
T/C (dose: 75.0 mg/kg/injection, schedule: Q01DX009 (ip), vehicle: other): 100 % of control
T/C [18]: 101 % of control
T/C [11]: 115 % of control
T/C (dose: 150.0 mg/kg/injection, schedule: Q01DX009 (ip), vehicle: other): 93 % of control
T/C [19]: 106 % of control

CC(=O)OCC(NC(=O)N(CCCl)N=O)C(OC(C)=O)C(OC(C)=O)C(COC(C)=O)OC(C)=O (stereo not drawn)
T/C (dose: 9.0 mg/kg/injection, schedule: Q01DX001 (ip), vehicle: saline + alcohol): 266 % of control
T/C (dose: 13.0 mg/kg/injection, schedule: Q01DX001 (ip), vehicle: saline + alcohol): 179 % of control
T/C (dose: 20.0 mg/kg/injection, schedule: Q01DX001 (ip), vehicle: saline + alcohol): 282 % of control

COc1cc(N(CCCl)CCCl)ccc1NC(=O)c1ccccc1
T/C [13]: 98 % of control
T/C [14]: 98 % of control
T/C [15]: 109 % of control

C=C1CC(C)(c2ccc(S(=O)(=O)N3CCCC3)cc2)OC1=O (stereo not drawn)
T/C (dose: 18.0 mg/kg/injection, schedule: Q01DX009 (ip), vehicle: Klucel (hydroxypropylcellulose) (HPC)): 108 % of control
T/C (dose: 37.5 mg/kg/injection, schedule: Q01DX009 (ip), vehicle: Klucel (hydroxypropylcellulose) (HPC)): 95 % of control
T/C (dose: 75.0 mg/kg/injection, schedule: Q01DX009 (ip), vehicle: Klucel (hydroxypropylcellulose) (HPC)): 104 % of control
T/C (dose: 87.5 mg/kg/injection, schedule: Q01DX009 (ip), vehicle: Klucel (hydroxypropylcellulose) (HPC)): 104 % of control

O=C1OCC/C1=C/OCCCCCCCCCCO/C=C1\CCOC1=O
T/C [4]: 91 % of control
T/C [5]: 91 % of control
T/C [6]: 94 % of control

CNC(=O)Oc1ccccc1C(=O)NCO
T/C (dose: 50.0 mg/kg/injection, schedule: Q01DX001 (ip), vehicle: Klucel (hydroxypropylcellulose) (HPC)): 97 % of control
T/C (dose: 50.0 mg/kg/injection, schedule: Q01DX009 (ip), vehicle: Klucel (hydroxypropylcellulose) (HPC)): 101 % of control and 107 % of control
T/C [12]: 97 % of control
T/C [1]: 101 % of control
T/C [4]: 94 % of control and 101 % of control
T/C [7]: 106 % of control
T/C [5]: 98 % of control

CC(C)CN(CC(C)C)C(=O)CCl
T/C [20]: 106 % of control

O=C(NCCCCCCNC(=O)c1ccccc1)c1ccccc1
T/C (dose: 50.0 mg/kg/injection, schedule: Q01DX001 (ip), vehicle: carboxymethylcellulose (CMC)): 100 % of control
T/C [20]: 103 % of control
T/C (dose: 200.0 mg/kg/injection, schedule: Q01DX001 (ip), vehicle: carboxymethylcellulose (CMC)): 97 % of control
T/C (dose: 400.0 mg/kg/injection, schedule: Q01DX001 (ip), vehicle: carboxymethylcellulose (CMC)): 97 % of control

Nc1nc(N)c2nc(CNc3ccc(Cl)cc3)cnc2n1
T/C (dose: 20.0 mg/kg/injection, schedule: Q01DX009 (ip), vehicle: Klucel (hydroxypropylcellulose) (HPC)): 96 % of control
T/C (dose: 40.0 mg/kg/injection, schedule: Q01DX009 (ip), vehicle: Klucel (hydroxypropylcellulose) (HPC)): 96 % of control
T/C (dose: 80.0 mg/kg/injection, schedule: Q01DX009 (ip), vehicle: Klucel (hydroxypropylcellulose) (HPC)): 104 % of control

CCOC(=O)C1C2c3ccccc3C(C1C(=O)OCC)[n+]1ccccc12 (stereo not drawn)
T/C [21]: 100 % of control
T/C [22]: 97 % of control
T/C [23]: 100 % of control

OC1(C2CCC(C(F)(F)F)CC2)C2C=CC1CC2 (stereo not drawn)
T/C (dose: 75.0 mg/kg/injection, schedule: Q04DX002 (ip), vehicle: Klucel (hydroxypropylcellulose) (HPC)): 93 % of control
T/C (dose: 150.0 mg/kg/injection, schedule: Q04DX002 (ip), vehicle: Klucel (hydroxypropylcellulose) (HPC)): 93 % of control
T/C (dose: 300.0 mg/kg/injection, schedule: Q04DX002 (ip), vehicle: Klucel (hydroxypropylcellulose) (HPC)): 100 % of control

N=C1SCc2c1sc1ccccc21
T/C [7]: 117 % of control
T/C [8]: 104 % of control
T/C [9]: 103 % of control

COC(=O)/C=C1/Nc2cc(Cl)c(OC)cc2C(=O)NC1=O
T/C [18]: 91 % of control
T/C [19]: 91 % of control

COC(=O)C1C2CCC3C2C(C)(C)CCCC31C (stereo not drawn)
T/C [7]: 98 % of control
T/C [8]: 106 % of control
T/C [9]: 103 % of control

O=S(=O)(O)c1cccc2cccc(Cl)c12
T/C [16]: 99 % of control
T/C (dose: 100.0 mg/kg/injection, schedule: Q01DX009 (ip), vehicle: saline): 95 % of control
T/C [21]: 109 % of control
T/C [17]: 94 % of control
T/C (dose: 200.0 mg/kg/injection, schedule: Q01DX009 (ip), vehicle: saline): 97 % of control
T/C [22]: 105 % of control
T/C (dose: 400.0 mg/kg/injection, schedule: Q01DX009 (ip), vehicle: saline with Tween-80): 96 % of control
T/C (dose: 400.0 mg/kg/injection, schedule: Q01DX009 (ip), vehicle: saline): 103 % of control
T/C [23]: 115 % of control
